A short description of experiment [1]: Displacement of [3H]ethynylpropylbicycloorthobenzoate from GABA receptor from rat cortical membrane by scintillation counting in absence of GABA. Background: Displacement assays read how much labelled ligand stays bound in the presence of the test substance.
Experiment [2] can be described thus: Displacement of [3H]ethynylpropylbicycloorthobenzoate from GABAA receptor from rat cortical membrane by scintillation counting in presence of 1 uM GABA.
Experiment [3] is filed under the species Rattus norvegicus. As to the kind of experiment: Ratio of IC50 for rat cortical membrane GABA receptor in absence of GABA to IC50 for rat cortical membrane GABA receptor in presence of GABA.
The species entered for experiment [4] is Rattus norvegicus. Briefly: Displacement of [3H]ethynylpropylbicycloorthobenzoate from GABA receptor from rat cortical membrane at 100 uM by scintillation counting in absence of GABA.
The species entered for experiment [5] is Rattus norvegicus. As to the kind of experiment: Displacement of [3H]ethynylpropylbicycloorthobenzoate from GABA receptor from rat cortical membrane at 100 uM by scintillation counting in presence of 1 uM GABA.

pIC50: −log10 of the molar value. The source made the active and inactive calls. The calls are words filed in the database; no cut-off is given here.

Turning to `COC(=O)c1cncn1[C@@H](C)c1ccccc1`, the negative logarithm of the IC50 (pIC50) (in general, −log10 of the IC50, conventionally taken in molar units) was less than 3.52 in experiment [1] and 3.69 in experiment [2].
`CCOC(=O)c1cncn1[C@H](C)c1ccc(I)cc1`: the pIC50 in experiment [1] was less than 3.52; in experiment [2] it was 4.48.
As for `CC(C)OC(=O)c1cncn1[C@H](C)c1ccccc1`, the Ratio IC50 in experiment [3] worked out at 14.6. Moreover, the results for the negative-log IC50 (pIC50) in experiment [1] and in experiment [2] were 4.68 and 5.83, respectively.
Consider `C[C@H](c1ccccc1)n1cncc1C(=O)OCCF`, for which, in experiment [3], the Ratio IC50 was determined as 16.6. In addition, the pIC50 in experiment [1] is 4.10; in experiment [2] it was 5.32.
For the compound `CC(C)(c1cccnc1)C(O)c1cccnc1` (stereo not given), the outcome in experiment [4] and in experiment [5] was inactive.
For `COC(=O)c1cncn1[C@H](C)c1cccc(I)c1`, the pIC50 was less than 3.52 in experiment [1] and 4.28 in experiment [2].
In the case of `COC(=O)c1cncn1[C@H](C)c1ccc(Br)cc1`, the Ratio IC50 in experiment [3] is 15.6. The figures for the pIC50 in experiment [1] and in experiment [2] were 3.96 and 5.12, respectively.
`CC(=O)[C@H]1CC[C@H]2[C@@H]3CC[C@H]4C[C@H](O)CC[C@]4(C)[C@H]3C(=O)C[C@]12C` [ALFAXALONE]: the Ratio IC50 in experiment [3] is 102. Further, the pIC50 in experiment [1] is 4.07; in experiment [2] it was 6.05.
In the case of `COC(=O)c1cncn1[C@H](C)c1ccc(C)cc1`, the pIC50 in experiment [1] is less than 3.52; in experiment [2] it was 4.81.
For the compound `CC(=O)[C@H]1CC[C@H]2[C@@H]3CC[C@H]4C[C@H](O)CC[C@]4(C)[C@H]3CC[C@]12C` [BREXANOLONE], in experiment [3], the Ratio IC50 amounted to 50. Also, the pIC50 in experiment [1] is 5.21; in experiment [2] it was 6.85.
As for `COC(=O)c1cncn1Cc1ccccc1`, the pIC50 was less than 3.52 in experiment [1] and 3.80 in experiment [2].
Regarding `C[C@H](c1ccccc1)n1cncc1C(N)=O`, the result in experiment [4] and in experiment [5] was inactive.
Take `COC(=O)c1cncn1[C@H](C)c1ccccc1`: in experiment [3], the Ratio IC50 worked out at 19.6. The pIC50 in experiment [1] is 3.79; in experiment [2], 5.05.
Turning to `CCOC(=O)c1cncn1[C@H](C)c1ccccc1` [ETOMIDATE], in experiment [3], the Ratio IC50 turned out to be 19.3. Further, the results for the negative logarithm of the IC50 (pIC50) in experiment [1] and in experiment [2] were 4.42 and 5.69, respectively.
As for `COC(=O)c1cncn1[C@H](C)c1ccc(CO)cc1`, the pIC50 was less than 3.52 in experiment [1] and 3.77 in experiment [2].
As for `COC(=O)c1cncn1[C@H](C)c1cccnc1`, the outcome in experiment [4] and in experiment [5] was inactive.
Consider `CC(C)(C(=O)c1cccnc1)c1cccnc1`, for which the outcome in experiment [4] and in experiment [5] was inactive.
Turning to `CC[C@H](c1ccccc1)n1cncc1C(=O)OC`, in experiment [3], the Ratio IC50 was 15.8. In addition, the pIC50 in experiment [1] was 3.95; in experiment [2], 5.15.
The corresponding values for `CCCOC(=O)c1cncn1[C@H](C)c1ccccc1` are 14.1, 4.81 and 5.89.
As for `CC(=O)c1cncn1[C@H](C)c1ccccc1`, the pIC50 in experiment [1] is less than 3.52; in experiment [2], 3.81.
For `C[C@H](c1ccccc1)n1cncc1C(=O)O`, the outcome in experiment [4] and in experiment [5] was inactive.
For the compound `COC(=O)c1cncn1[C@@H]1CCc2ccccc21`, the pIC50 was less than 3.52 in experiment [1] and 3.91 in experiment [2].
Take `COC(=O)c1cncn1[C@H](C)c1ccc(I)cc1` [IODOMETOMIDATE I-123, R-]: the results for the negative logarithm of the IC50 (pIC50) in experiment [1] and in experiment [2] were less than 3.52 and 4.43, respectively.

Source of the values: ChEMBL document CHEMBL1152973, “Structure-activity relationship of etomidate derivatives at the GABA(A) receptor: Comparison with binding to 11beta-hydroxylase” (Bioorg Med Chem Lett, 2009).
